One test relates to PSA mRNA. As to the kind of experiment: Androgen-induced PSA mRNA levels in LNCaP cells (qRT-PCR). As to conditions: 10 μg/ml, 1 hour pretreatment, R1881 1 nM, 16 hours. The class given is cell-based, human. As for the experimental part:
Levels of PSA mRNA were measured by quantitative real-time (qRT)-PCR and normalized to levels of GAPDH mRNA (housekeeping gene). White bar: no R1881. Black bars: R1881 (1 nM). MNE: mean normalized expression. DMSO (no R1881) was arbitrarily set at 1.0 for each individual experiment. Bars represent the mean±SE from 3 separate experiments using triplicate technical samples from each experiment.
PSA is an androgen-regulated gene containing several well-characterized androgen response elements (AREs) in the enhancer and promoter regions. Levels of PSA mRNA are induced by androgen by a mechanism dependent androgen receptor. To test if sintokamides would also block endogenous gene expression induced by androgen, levels of PSA mRNA were measured in response to the synthetic androgen R1881.

The target of test [1] is T1, glucocorticoid receptor (GR) (Homo sapiens, UniProt P04150).
T1 construct: Cells were co-transfected with expression plasmids for full-length hGR and PRβ; expressed in transfected cells; host or cells: LNCaP cells
T1 sequence (P04150 1-777): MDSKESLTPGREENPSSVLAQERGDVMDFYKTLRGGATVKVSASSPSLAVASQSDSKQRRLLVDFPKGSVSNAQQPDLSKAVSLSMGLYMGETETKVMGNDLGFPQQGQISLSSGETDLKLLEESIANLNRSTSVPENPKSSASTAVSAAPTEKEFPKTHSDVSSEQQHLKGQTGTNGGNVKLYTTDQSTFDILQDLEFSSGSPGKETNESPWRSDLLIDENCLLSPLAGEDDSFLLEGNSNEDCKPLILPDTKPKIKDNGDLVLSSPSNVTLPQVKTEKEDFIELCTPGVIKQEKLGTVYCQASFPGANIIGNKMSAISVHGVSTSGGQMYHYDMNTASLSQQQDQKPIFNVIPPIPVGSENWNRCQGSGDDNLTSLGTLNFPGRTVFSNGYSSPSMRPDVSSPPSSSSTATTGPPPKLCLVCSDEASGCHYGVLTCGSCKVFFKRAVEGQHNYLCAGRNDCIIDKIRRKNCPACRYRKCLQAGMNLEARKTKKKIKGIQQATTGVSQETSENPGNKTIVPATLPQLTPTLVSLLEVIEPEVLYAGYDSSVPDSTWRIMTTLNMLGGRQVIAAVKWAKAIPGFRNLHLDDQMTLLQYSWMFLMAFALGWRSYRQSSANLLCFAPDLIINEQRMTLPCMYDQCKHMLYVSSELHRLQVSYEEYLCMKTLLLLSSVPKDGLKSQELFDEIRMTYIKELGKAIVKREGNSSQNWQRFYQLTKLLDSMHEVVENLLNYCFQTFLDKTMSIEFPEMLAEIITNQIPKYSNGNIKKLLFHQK
As to the kind of experiment: GRE-luciferase reporter assay in LNCaP cells transfected with hGR. The class given is cell-based. The following applies: 5 μg/ml, dexamethasone 10 nM, 24 h. An excerpt: (§1) White bars represent no steroid (ethanol control). Wherein glucocorticoid receptor (GR) and progesterone receptor (PR).
(§2) Sequence similarities of amino acids in the AR with related human steroid receptors (glucocorticoid receptor (GR) and progesterone receptor (PR)) are significant in some domains such as the DNA-binding-domain (DBD). Although the AR-NTD shares less than 15% homology with the PR and GR, these receptors do interact with some of the same proteins such as SRC-1 (steroid receptor coactivator-1). Therefore, reporter gene assays were used to determine if candidate compounds that block AR activity have any effect on GR and PR transcriptional activity. Cells were co-transfected with expression plasmids for full-length hGR and PRβ and the relative reporter (i.e., pGR-Luc or PRE-E1b-Luc reporters). Cells were then treated with ethanol vehicle, dexamethasone (GR), 4-pregnene-3,20 dione (progesterone) (PR) followed by measurement of luciferase activity.
On the technique in general: In a reporter assay the amount or activity of a reporter protein is the signal.

Test [2] has as its target T2, progesterone receptor (PR) (Homo sapiens, UniProt P06401).
T2 construct: Cells were co-transfected with expression plasmids for full-length hGR and PRβ; expressed in transfected cells; host or cells: LNCaP cells
T2 sequence (P06401 1-933): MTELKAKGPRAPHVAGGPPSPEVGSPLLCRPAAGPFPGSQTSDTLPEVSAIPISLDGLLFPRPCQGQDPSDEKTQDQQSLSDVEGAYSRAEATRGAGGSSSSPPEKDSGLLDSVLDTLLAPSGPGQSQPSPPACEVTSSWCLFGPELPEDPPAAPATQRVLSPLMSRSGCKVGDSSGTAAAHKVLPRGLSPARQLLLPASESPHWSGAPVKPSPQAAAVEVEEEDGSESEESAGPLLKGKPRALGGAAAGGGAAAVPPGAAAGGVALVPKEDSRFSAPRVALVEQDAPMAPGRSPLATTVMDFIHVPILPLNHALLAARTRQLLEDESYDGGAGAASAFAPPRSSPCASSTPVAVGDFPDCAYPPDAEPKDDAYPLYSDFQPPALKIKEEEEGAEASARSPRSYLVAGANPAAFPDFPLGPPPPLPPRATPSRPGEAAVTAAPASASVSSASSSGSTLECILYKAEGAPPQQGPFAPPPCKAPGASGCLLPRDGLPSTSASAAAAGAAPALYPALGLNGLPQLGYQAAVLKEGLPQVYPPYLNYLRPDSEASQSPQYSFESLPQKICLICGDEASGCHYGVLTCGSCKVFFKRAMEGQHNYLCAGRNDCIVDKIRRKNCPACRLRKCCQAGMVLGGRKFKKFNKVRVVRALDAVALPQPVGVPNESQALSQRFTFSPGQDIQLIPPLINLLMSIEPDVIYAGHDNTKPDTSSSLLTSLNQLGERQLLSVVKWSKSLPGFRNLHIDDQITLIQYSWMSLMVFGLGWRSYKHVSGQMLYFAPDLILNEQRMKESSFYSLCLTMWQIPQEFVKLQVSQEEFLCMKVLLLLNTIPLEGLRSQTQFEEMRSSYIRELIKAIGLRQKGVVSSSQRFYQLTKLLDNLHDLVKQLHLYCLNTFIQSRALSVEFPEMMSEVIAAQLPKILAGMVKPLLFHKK
In words: PRE-luciferase reporter assay in LNCaP cells transfected with PRβ. Type of test: cell-based. The following applies: 5 μg/ml, progesterone 10 nM, 24 h.
Source text: as §1, §2

Molecules are shown by their SMILES.

In the case of `CCC(=O)N[C@H](C[C@H](C)C(Cl)(Cl)Cl)C(=O)N1C(=O)C=C(OC)[C@@H]1C[C@H](C)C(Cl)Cl` [CB3.1, Sintokamide A], in the test on PSA mRNA, the “inhibition of androgen-induced levels of PSA mRNA” value is listed as “inhibit”. Besides, the “GRE-luciferase activity in response to ligand” value in test [1] is “did not inhibit”. Further, in test [2], the “PRE-luciferase activity in response to ligand” value is listed as “did not inhibit”.

The values are drawn from US9487479B2, “Small molecule inhibitors of N-terminus activation of the androgen receptor” (The University of British Columbia, priority 2008, dated 2016).
